Where “and” joins values, the source holds several entries; their conditions need not be identical. Identical values can stand only once. Like-named read-outs stand apart in the source and are kept apart here.
Columns and labels:
[1] = cited from earlier work
[2] = target: T1, Hb (Homo sapiens, UniProt P69905); assay: Time-dependent Hb oxygen equilibrium; format: biochemical; conditions: at 3 h; 2 mM; normal whole blood, hematocrit 20%, 37 °C
[3] = cited from earlier work; remark: listed apart in the source
[4] = target: T1, Hb; assay: Oxygen equilibrium curve; format: biochemical; conditions: 2 mM; SS blood lysates; relative to untreated controls
[5] = target: T1, Hb; assay: Hb modification; format: binding; conditions: 2 mM; SS blood lysates; percentage fraction of total Hb area
[6] = tested on: human cytochrome P450 (CYP) enzymes; assay: CYP inhibition panel of seven CYP enzymes, pooled human liver microsomes; format: in vitro ADME; conditions: CYP1A2, CYP2C8, CYP2C9, CYP2C19, CYP2D6, CYP3A4, CYP2B6; 0.1–100 µM

SMILES | aq. solubility ([1]; at 25 °C, ref PubChem CID 237,332) | P50 shift [2] | half‐life [3] | % P50 shift [4] | % Hb modification [5] | inhibition of liver CYP isozymes [6] | aq. solubility ([1]; in water at 25 °C)
O=Cc1ccc(CO)o1 [5‐HMF, 5‐hydroxymethylfurfural] | ≈ 400 mg mL^−1 | 35% | < 2.2 h | 27% and 27.2 ± 4.9% | 33.8 ± 11.7% | no inhibition | –
CC(C)n1nccc1-c1ncccc1COc1cccc(O)c1C=O [Voxelotor] | – | – | > 50 h | – | – | – | < 100 µg/mL
